Patent US20240180221A1, “METHODS AND COMPOSITIONS FOR IMPROVED TASTE QUALITY” (ALMENDRA PTE. LTD., priority 2021, published 2024)

Test system: human taste testers
Experiment: Tasting of amino acid solutions in citric acid buffer for bitterness, with and without taste modulator
Type: in vivo
Conditions: for bitterness intensity: 7.5 mM solution in pH 3.2 CAB, 0-15 intensity scale; for Bitter Taste Threshold in CAB: pH 3.2 Citric Acid Buffer, serial dilutions from 30 mM to 1.88 mM tasted in ascending order

Compound	bitterness intensity	Bitter Taste Threshold in CAB	bitterness onset and linger (in pH 3.2 CAB)
N[C@@H](Cc1ccccc1)C(=O)O [L-Phe, L-Phenylalanine]	5	ca. 3 mM	–
N[C@@H](Cc1c[nH]c2ccccc12)C(=O)O [L-Trp, L-Tryptophan]	5	ca. 3 mM	noticeably slow in onset and quite lingering
